Here are results for 52 molecules from PubChem BioAssay AID1996.

Each structure is given as a SMILES string. ≈ marks a conversion by molar mass, not a printed value.

For this data set the following is noted: buffer; pH 7.4; 200.0 µM.
The molecule `O=C(Nc1ccccc1F)c1cnccn1` gave a solubility (kinetic) of over 32.6 µg/mL.

`CC(=O)NC(CC(=O)NCCc1ccccc1)c1ccccc1` (configuration not stated) gave a solubility (kinetic) of 45.7 µg/mL (≈ 147 µM). The molecule `Cc1ccc(C(=O)NCC(=O)Nc2ccc(S(=O)(=O)Nc3cc(C)nc(C)n3)cc2)cc1` returned a solubility (kinetic) of over 68 µg/mL. In the case of `CCC(=O)Nc1c(-c2ccc3ccccc3c2)nc2ccccn12` it was 45.7 µg/mL (≈ 145 µM). With `CC1CC(C)CN(C(=O)CCCNC(=O)c2ccc(Cl)cc2)C1` (configuration not stated) the figure was over 50.5 µg/mL; with `CN(C)c1ccc(/C=C/C(=O)c2ccc3c(c2)OCO3)cc1`, 2.9 µg/mL (≈ 9.82 µM); with `Cc1cc(/C=C(\C#N)C(=O)N2CCOCC2)c(C)n1C1CCCC1`, 32.9 µg/mL (≈ 100 µM).

Take `Cl.Nc1cnn(Cc2ccc(F)cc2)c1`: the kinetic solubility was over 34.2 µg/mL.

Regarding `CC(NC(=O)COC(=O)c1ccc2c(c1)OCO2)c1ccccc1` (configuration not stated), the kinetic solubility turned out to be 14.9 µg/mL (≈ 45.5 µM). With `CCN(Cc1ccccc1)C(=O)c1c(-c2ccccc2Cl)noc1C` the figure was 38.7 µg/mL (≈ 109 µM); with `Cc1ccc2nc(Nc3ccccc3)cc(C)c2c1`, 3.9 µg/mL (≈ 15.7 µM).

Molecule `CCOC(=O)CNC(=O)CSc1nccn1Cc1ccco1` yielded a solubility (kinetic) of over 48.5 µg/mL. With `Nc1ccccc1SCc1ccccc1Cl` the figure was 3.3 µg/mL (≈ 13.2 µM); with `Cc1ccccc1NC(=O)NCc1ccccn1`, over 36.2 µg/mL.

Molecule `O=C(NCC(O)c1ccc([N+](=O)[O-])cc1)C1CCCCC1` (configuration not stated) gave a kinetic solubility of 28.4 µg/mL (≈ 97.1 µM).

The molecule `COc1cccc(NC(=O)c2ccc3c(c2)CCCC3)c1` displayed a solubility (kinetic) of 6 µg/mL (≈ 21.3 µM). In the case of `CC(C)(C)c1ccc(C(=O)NCc2ccco2)cc1` it was 13.5 µg/mL (≈ 52.5 µM). In the case of `Cc1ccc(C(=O)NC23CC4CC(CC(C4)C2)C3)c(Cl)c1` it was 0.7 µg/mL (≈ 2.3 µM).

The molecule `O=C(NCCCNC(=O)c1ccccn1)c1ccc(Cl)cc1` returned a kinetic solubility of 39 µg/mL (≈ 123 µM). Against the preceding molecule, the solubility kinetic is about 56-fold higher. In the case of `CC(=O)Nc1cccc(NCC(=O)Nc2cc(S(=O)(=O)N3CCCCC3)ccc2Cl)c1` it was 35.8 µg/mL (≈ 77 µM); in that of `Cc1noc(C(=O)NCC2CCCO2)c1Cl` (configuration not stated), over 36.7 µg/mL; in that of `CC(=O)OC1CC(c2cc(C(C)(C)C)c(O)c(C(C)(C)C)c2)=NO1` (configuration not stated), 7.7 µg/mL (≈ 23.1 µM). In the case of `Cc1ccc(SCCCCN2CCOCC2)cc1.Cl` it was over 45.3 µg/mL; in that of `Cc1cc(C(=O)CN2C(=O)C(=O)N(Cc3ccccc3)C2=O)c(C)n1Cc1ccccc1`, 4 µg/mL (≈ 9.31 µM); in that of `COc1ccc(CCNC(=O)C2Cc3ccccc3C(=O)O2)cc1` (configuration not stated), over 48.8 µg/mL. In the case of `Cc1ccc2c(C)c(C(=O)NCCc3ccco3)oc2c1C` it was 2.8 µg/mL (≈ 9.42 µM). Molecule `CCNC(=O)CC1C(=O)N(c2ccc(C)cc2)C(=O)N1CCC(C)C` (configuration not stated) returned a solubility (kinetic) of over 51.8 µg/mL. With `O=C(NCC(=O)N1CCN(c2ccccc2O)CC1)c1cccs1` the figure was over 51.8 µg/mL; with `Nc1cc(N2CCCC2)c(Cl)cc1[N+](=O)[O-]`, 3 µg/mL (≈ 12.4 µM). With `N#Cc1ccccc1S(=O)(=O)Nc1ccc2c(c1)C(=O)OC2` the figure was 43.4 µg/mL (≈ 138 µM); with `NS(=O)(=O)c1cccc(C(=O)OCC(=O)NC2CCCc3ccccc32)c1` (configuration not stated), 21.6 µg/mL (≈ 55.6 µM); with `Cc1noc(C)c1COC(=O)COc1ccc(C#N)cc1`, over 42.9 µg/mL. In the case of `O=C(CCC(=O)NC1CCCCC1)Nc1cccnc1` it was over 41.3 µg/mL; in that of `Cc1occc1-c1nnc(SCC(=O)NC2CC2)n1C`, over 43.9 µg/mL; in that of `O=C(Cc1c(Cl)cccc1Cl)NC1=NCCS1`, 19.2 µg/mL (≈ 66.4 µM). With `Cc1c(C(=O)NCc2ccco2)oc2c(Cl)cccc12`, the kinetic solubility came out at 2.4 µg/mL (≈ 8.28 µM). Compared with the last molecule, the solubility kinetic is about 8-fold lower.

`COc1ccc(-c2nc3n(c(=O)c2C#N)CCS3)c(OC)c1` returned a kinetic solubility of over 47.3 µg/mL.

In turn, `O=C(NCc1ccccc1)NC12CC3CC(CC(C3)C1)C2` came in with a kinetic solubility of 2.6 µg/mL (≈ 9.14 µM).

In turn, `O=C(N/N=C/c1ccc(N2CCOCC2)cc1)c1ccncc1` registered a solubility (kinetic) of over 46.6 µg/mL. `COc1cc(C2C(C#N)=C(SC)NC3=C2C(=O)CCC3)ccc1O` (configuration not stated): the solubility (kinetic) was over 51.4 µg/mL.

Turning to `CC1C(C#N)=C(N)OC2=C1C(=O)CC(c1ccccc1)C2` (configuration not stated), the kinetic solubility is over 42 µg/mL. In the case of `CCOc1ccccc1NC(=O)CN1CCCCCC1.Cl`, the solubility (kinetic) amounted to 32.9 µg/mL. In the case of `CC1(C)C(=O)N(c2ccccc2)C(=O)c2ccccc21` it was 25.8 µg/mL (≈ 97.2 µM). In the case of `FC(F)(F)c1ccccc1N1CC1c1ccncc1` (configuration not stated) it was 31 µg/mL (≈ 117 µM); in that of `Cc1nc2sc(C(N)=O)c(N)c2c(C)c1CC(=O)c1ccccc1`, 1.7 µg/mL (≈ 5.01 µM). In turn, `COc1ccc(C(=O)NCc2ccccn2)cc1[N+](=O)[O-]` displayed a kinetic solubility of over 43.1 µg/mL. The molecule `CCc1ccc(OCC(=O)NC(C)C)cc1` came in with a solubility (kinetic) of 30.9 µg/mL (≈ 140 µM). Turning to `O=C(Cc1ccc(Cl)cc1Cl)Nc1ccncc1Cl`, the solubility (kinetic) turned out to be 12.4 µg/mL (≈ 39.3 µM).

`CCOc1ccc(NS(=O)(=O)c2csc(C(N)=O)c2)cc1` showed a kinetic solubility of 46 µg/mL (≈ 141 µM).

Take `NC(CS(=O)O)C(=O)O` (configuration not stated): the solubility (kinetic) was over 23 µg/mL. The molecule `CNc1nc(-c2c(C)[nH]c3ccc(OC)cc23)cs1` showed a solubility (kinetic) of 31.8 µg/mL (≈ 116 µM). In the case of `COc1ccccc1CC(=O)NC1CCCCCC1` it was 37.6 µg/mL (≈ 144 µM).
